Measurements as given in paper PMC7822874, “Chemoprotective antimalarials identified through quantitative high-throughput screening of Plasmodium blood and liver stage parasites” (Scientific Reports, 2021).
Like-named read-outs stand apart in the source and are kept apart here.

What was measured:
[1] = tested on: HepG2-A16-CD81EGFP cells
[2] = tested on: Plasmodium falciparum Dd2 asexual blood stage parasites; test: microbe, parasite or virus in culture; design: species or system Plasmodium falciparum Dd2 in human erythrocytes; single determination (one 11-point concentration-response curve); details: Plasmodium falciparum, DD2, Erythrocyte, 72 h; read-out: AC50
[3] = in vitro; details: human
[4] = tested on: luciferase-expressing P. berghei liver stage parasites in HepG2 cells; test: Inhibition of liver-stage development assay (ILSDA), Method 2 (WRAIR, 96-well); assay type: cell-based, Plasmodium berghei; details: for Max Resp (signal direction of the dose response): Method 2, Decrease = decreasing P. berghei viability with dose, Increase = increasing signal, Inactive = no dose response; for AC50: Plasmodium berghei
[5] = tested on: P. berghei-ANKA-GFP-LucCON liver stage parasites in HepG2-A16-CD81EGFP cells; test: P. berghei liver stage Pb-Luc assay, Method 1 (UCSD, 1536-well); assay type: cell-based, Plasmodium berghei; details: for Max Resp (signal direction of the dose response): Decrease = decreasing P. berghei viability with dose, Increase = increasing signal, Inactive = no dose response; for activity at 1 µM / activity at 3 µM: 48 h
[6] = nominal 1 uM (10 mM stock), […] for 15 mM, 1.2 uM for 12 mM, 2 uM for 20 mM stock, average of 2 wells, repeat 2
[7] = nominal 3 uM (10 mM stock), 4.5 uM for 15 mM, 3.6 uM for 12 mM, 6 uM for 20 mM stock, average of 2 wells, repeat 2
[8] = HepG2-A16-CD81EGFP cells, uninfected
[9] = HepG2, Method 2, Hill fit, 50% of maximum activity response, read-out: AC50
[10] = HepG2, Method 2, log10 of molar AC50 from Hill fit, read-out: Log AC50 (converted)
[11] = Plasmodium berghei, nominal 1 uM (10 mM stock), […] for 15 mM, 1.2 uM for 12 mM, 2 uM for 20 mM stock, average of 2 wells, 1536-well plate, repeat 1, read-out: Pb-Luc signal, 1 uM, repeat 1
[12] = Plasmodium berghei, nominal 1 uM (10 mM stock), […] for 15 mM, 1.2 uM for 12 mM, 2 uM for 20 mM stock, average of 2 wells, 1536-well plate, repeat 2, read-out: Pb-Luc signal, 1 uM, repeat 2
[13] = Plasmodium berghei, nominal 1 uM (10 mM stock), […] for 15 mM, 1.2 uM for 12 mM, 2 uM for 20 mM stock, average of 2 wells, 1536-well plate, repeat 3, read-out: Pb-Luc signal, 1 uM, repeat 3
[14] = Plasmodium berghei, nominal 3 uM (10 mM stock), 4.5 uM for 15 mM, 3.6 uM for 12 mM, 6 uM for 20 mM stock, average of 2 wells, 1536-well plate, repeat 1, read-out: Pb-Luc signal, 3 uM, repeat 1
[15] = Plasmodium berghei, nominal 3 uM (10 mM stock), 4.5 uM for 15 mM, 3.6 uM for 12 mM, 6 uM for 20 mM stock, average of 2 wells, 1536-well plate, repeat 2, read-out: Pb-Luc signal, 3 uM, repeat 2
[16] = Plasmodium berghei, nominal 3 uM (10 mM stock), 4.5 uM for 15 mM, 3.6 uM for 12 mM, 6 uM for 20 mM stock, average of 2 wells, 1536-well plate, repeat 3, read-out: Pb-Luc signal, 3 uM, repeat 3
[17] = Plasmodium berghei, Method 1, Hill fit, 50% of maximum activity response, read-out: AC50
[18] = Plasmodium berghei, Method 1, log10 of molar AC50 from Hill fit, read-out: Log AC50 (converted)

COc1ccc(-n2nc(C)c([C@@H]3C=C[C@@H](NCc4cccc(Cl)c4)C3)c2C)cc1 [NCGC00391691-01]
HepG2 viability signal, 1 uM, repeat 2 [1, 6]: 103.31% | HepG2 viability signal, 3 uM, repeat 2 [1, 7]: 96.15% | AC50 [2]: 1.37 µM | viability at 48 h, 1 µM [3, 8]: 104% | viability at 48 h, 3 µM [3, 8]: 102% | Max Resp (signal direction of the dose response) [4]: Decrease | AC50 [4, 9]: 1.26 µM | AC50 [4, 10]: 1.26 µM | Max Resp (signal direction of the dose response) ([5]; Method 1): Decrease | AC50 ([5]; Method 1, Hill fit, 50% of maximum activity response, read-out: AC50): 2 µM | Log AC50 (M) ([5]; Method 1, log10 of molar AC50 from Hill fit): -5.700 M | activity at 1 µM [5, 11]: 41.3% | activity at 1 µM [5, 12]: 40.5% | activity at 1 µM [5, 13]: 39.6% | activity at 3 µM [5, 14]: 11.5% | activity at 3 µM [5, 15]: 13.5% | activity at 3 µM [5, 16]: 12.4% | AC50 [5, 17]: 1.58 µM | AC50 [5, 18]: 1.58 µM

O=C(Nc1ccc2c(N3CCOCC3)ncnc2c1)c1cccc(Br)c1 [NCGC00425561-01]
HepG2 viability signal, 1 uM, repeat 2 [1, 6]: 93.24% | HepG2 viability signal, 3 uM, repeat 2 [1, 7]: 58.93% | AC50 [2]: 4.22 µM | viability at 48 h, 1 µM [3, 8]: 97.9% | viability at 48 h, 3 µM [3, 8]: 39.6% | Activity direction (Decrease / Inactive) [4]: Decrease | AC50 ([4]; HepG2): 31.6 µM | AC50 ([4]; HepG2, read-out: Log AC50 (converted)): 31.6 µM | activity at 1 µM [5, 11]: 70.5% | activity at 1 µM [5, 12]: 72.5% | activity at 1 µM [5, 13]: 53.9% | activity at 3 µM [5, 14]: 30.4% | activity at 3 µM [5, 15]: 40.5% | activity at 3 µM [5, 16]: 12.4% | AC50 [5, 17]: 1.41 µM | AC50 [5, 18]: 1.41 µM

COc1cc2c(cc1Oc1cccc(N(C)C)c1)NC(=O)C21CCN(c2cnccn2)CC1 [NCGC00416778-01]
HepG2 viability signal, 1 uM, repeat 2 ([1]; human, 48 h, 1 µM): 94.98% | HepG2 viability signal, 3 uM, repeat 2 ([1]; human, 48 h, 3 µM): 87.34% | AC50 [2]: 1.5 µM | viability at 48 h, 1 µM [3]: 101% | viability at 48 h, 3 µM [3]: 89.7% | Activity direction (Decrease / Inactive) ([4]; P. berghei liver stage, Method 2, dose response): Decrease | AC50 ([4]; HepG2, P. berghei liver stage, Method 2, dose response, read-out: AC50): 1 µM | AC50 ([4]; HepG2, P. berghei liver stage, Method 2, dose response, read-out: Log AC50 (converted)): 1 µM | Max Resp (signal direction of the dose response) ([5]; Method 1): Inactive | activity at 1 µM [5, 11]: 86.6% | activity at 1 µM [5, 12]: 95.1% | activity at 1 µM [5, 13]: 107% | activity at 3 µM [5, 14]: 35% | activity at 3 µM [5, 15]: 40% | activity at 3 µM [5, 16]: 53.9%

CCc1ccc(C2Sc3ccccc3N=C3C2=C(O)c2ccccc23)cc1 (centres unmarked) [NCGC00108831-01]
HepG2 viability signal, 1 uM, repeat 2 [1, 6]: 104.01% | HepG2 viability signal, 3 uM, repeat 2 [1, 7]: 104.74% | viability at 48 h, 1 µM [3, 8]: 103% | viability at 48 h, 3 µM [3, 8]: 105% | Max Resp (signal direction of the dose response) [4]: Decrease | AC50 [4, 9]: 0.398 µM | AC50 [4, 10]: 0.398 µM | Max Resp (signal direction of the dose response) ([5]; Method 1): Decrease | activity at 1 µM [5, 11]: 12.1% | activity at 1 µM [5, 12]: 58.2% | activity at 1 µM [5, 13]: 12.7% | activity at 3 µM [5, 14]: 2.42% | activity at 3 µM [5, 15]: 50.9% | activity at 3 µM [5, 16]: 62.2%

COc1ccc(-c2cc(C(F)(F)F)nc(SCCC(=O)Nc3cc(C)ccc3O)n2)cc1 [NCGC00101472-01]
HepG2 viability signal, 1 uM, repeat 1 ([1]; nominal 1 uM (10 mM stock), […] for 15 mM, 1.2 uM for 12 mM, 2 uM for 20 mM stock, average of 2 wells, repeat 1): 98.35% | HepG2 viability signal, 1 uM, repeat 2 [1, 6]: 103.33% | HepG2 viability signal, 3 uM, repeat 2 [1, 7]: 103.42% | AC50 [2]: 1.88 µM | Max Resp (signal direction of the dose response) [4]: Inactive | activity at 1 µM [5, 11]: 38.3% | activity at 1 µM [5, 12]: 70% | activity at 1 µM [5, 13]: 108% | activity at 3 µM [5, 14]: 2.83% | activity at 3 µM [5, 15]: 48.6% | activity at 3 µM [5, 16]: 51.1% | AC50 [5, 17]: 2 µM | AC50 [5, 18]: 2 µM

Cc1cc(Nc2ccc(Br)c(C)c2)n2nc(C)nc2n1 [MLS000116638-01]
HepG2 1uM growth rep1 ([1]; HepG2, 1 µM compound treatment (10 mM stocks), replicate 1, normalized, average of 2 wells): 91% | HepG2 1uM growth rep2 ([1]; HepG2, 1 µM compound treatment (10 mM stocks), replicate 2, normalized, average of 2 wells): 87% | HepG2 3uM growth rep1 ([1]; HepG2, 3 µM compound treatment (10 mM stocks), replicate 1, normalized, average of 2 wells): 86% | HepG2 3uM growth rep2 ([1]; HepG2, 3 µM compound treatment (10 mM stocks), replicate 2, normalized, average of 2 wells): 89% | AC50 [2]: 1.33 µM | Max Resp (signal direction of the dose response) [4]: Decrease | AC50 [4, 9]: 0.794 µM | AC50 [4, 10]: 0.794 µM | activity at 1 µM ([5]; Plasmodium berghei, P. berghei liver stage, 1 µM compound treatment (10 mM stocks), replicate 1, normalized, average of 2 wells on a 1536 well plate, read-out: PbLuc 1uM growth rep1): 32% | activity at 1 µM ([5]; Plasmodium berghei, P. berghei liver stage, 1 µM compound treatment (10 mM stocks), replicate 2, normalized, average of 2 wells on a 1536 well plate, read-out: PbLuc 1uM growth rep2): 25% | activity at 3 µM ([5]; Plasmodium berghei, P. berghei liver stage, 3 µM compound treatment (10 mM stocks), replicate 1, normalized, average of 2 wells on a 1536 well plate, read-out: PbLuc 3uM growth rep1): 9% | activity at 3 µM ([5]; Plasmodium berghei, P. berghei liver stage, 3 µM compound treatment (10 mM stocks), replicate 2, normalized, average of 2 wells on a 1536 well plate, read-out: PbLuc 3uM growth rep2): 12%
